Literature values in patent US20100120050A1, “Biomarkers For Assessing Altherosclerotic Potential” (ENTELOS, INC., priority 2008, published 2010).

Conditions: clinical trials and post-marketing; cited from earlier work

Cc1c(C(=O)NN2CCCCC2)nn(-c2ccc(Cl)cc2Cl)c1-c1ccc(Cl)cc1 [rimonabant]
effect on plaque endpoints: little observed effect on plaque endpoints
